Measured values as given in PubChem BioAssay (NCI).
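A five-concentration, 48-hour dose response in 96-well plates underlies each endpoint, interpolated linearly between surrounding concentrations. GI50 is the concentration that inhibits growth by half. TGI is the concentration that stops growth completely.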

Legend:
Test in all cases: growth of human tumour cells (NCI), 48 h
TK-10 renal = system: TK-10 renal
NCI-H23 lung = system: NCI-H23 lung
MDA-N = system: MDA-N
NCI-H226 lung = system: NCI-H226 lung
PC-3 prostate = system: PC-3 prostate
IGROV1 ovarian = system: IGROV1 ovarian
SF-295 CNS = system: SF-295 CNS
T-47D breast = system: T-47D breast
M14 melanoma = system: M14 melanoma
A498 renal = system: A498 renal
HOP-92 NSCLC = system: HOP-92 NSCLC
SF-539 CNS = system: SF-539 CNS

SMILES	TGI (TK-10 renal)	TGI (NCI-H23 lung)	TGI (MDA-N)	TGI (NCI-H226 lung)	TGI (PC-3 prostate)	TGI (IGROV1 ovarian)	TGI (SF-295 CNS)	TGI (T-47D breast)	TGI (M14 melanoma)	TGI (A498 renal)	TGI (HOP-92 NSCLC)	TGI (SF-539 CNS)	GI50 (NCI-H23 lung)
CCCCCCCC/C=C/CCCCCCCC1CC(O)C(=O)O1 (stereo unspecified)	> 100 µM	> 100 µM	> 100 µM	> 100 µM	> 100 µM	> 100 µM	> 100 µM	> 100 µM	> 100 µM	> 100 µM	90.9 µM		
N/N=C(\C(=O)Nc1ccc([N+](=O)[O-])cc1)C(C1=Nc2cc([N+](=O)[O-])ccc2NC1)[N+](=O)[O-] (stereo unspecified)	> 100 µM	> 100 µM	> 100 µM	> 100 µM	> 100 µM	> 100 µM	> 100 µM	> 100 µM	> 100 µM	> 100 µM	> 100 µM	> 100 µM	
Cc1cccc(NC(=S)N/N=C(/c2ccccc2)c2ccccn2)c1	16 µM	13.9 µM	20.8 µM	6 µM	18.3 µM	16.7 µM	10.7 µM	19.6 µM	2.58 µM	13.7 µM	15.7 µM	12.8 µM	
C=C(C(=O)O)[C@@H]1C[C@@H]2O[C@H]1CC(C)=CCC/C(C)=C/CC[C@@]2(C)O	> 100 µM		> 100 µM	> 100 µM	> 100 µM	> 100 µM	> 100 µM	> 100 µM	> 100 µM	> 100 µM	> 100 µM	> 100 µM	
COC(Cc1ccccc1)NC(C)=O (stereo unspecified)	> 100 µM	> 100 µM	> 100 µM	> 100 µM	> 100 µM	> 100 µM	> 100 µM	> 100 µM	> 100 µM	> 100 µM	> 100 µM	> 100 µM	
CN1CCN(c2ccc(-n3cc(C(=O)O)c(=O)c4cc(F)c(N5CCN(C)CC5)cc43)nc2)CC1	> 100 µM	> 100 µM	> 100 µM	> 100 µM	> 100 µM	> 100 µM	> 100 µM	> 100 µM	> 100 µM	> 100 µM	> 100 µM	> 100 µM	
CC(=O)O[C@H]1[C@@H](N2CCN(C)CC2)C[C@H]2[C@@H]3CC=C4C[C@@H](N5CCCC5)CC[C@]4(C)[C@H]3CC[C@@]21C	> 100 µM	> 100 µM	> 100 µM	> 100 µM	> 100 µM	> 100 µM	53.5 µM	> 100 µM	34.5 µM	> 100 µM	> 100 µM	29.3 µM	
CCOP(=O)(OCC)/C(C#N)=C/c1c(C)[nH]c2ccccc12	> 100 µM	> 100 µM	> 100 µM	> 100 µM	> 100 µM	> 100 µM	> 100 µM	> 100 µM	> 100 µM	> 100 µM	> 100 µM	> 100 µM	
CCN(CC)C1=Nc2ccccc2-n2c(C)cnc2C1	> 100 µM	> 100 µM	> 100 µM	> 100 µM	> 100 µM	> 100 µM	> 100 µM	> 100 µM	> 100 µM	> 100 µM	> 100 µM	> 100 µM	
CCCCCC(/C=N/N)C(O)(C(F)(F)F)C(F)(F)F (stereo unspecified)	> 10 µM	9.49 µM	> 10 µM	8.63 µM	6.82 µM	> 10 µM	8.6 µM	> 10 µM	> 10 µM	7.95 µM	6.36 µM	> 10 µM	
C[C@]12CCC(=O)C=C1CC[C@@H]1C2CC[C@]2(C)Nc3c(ncn3-c3ccc(F)cc3)CC12 (stereo partly specified)	> 100 µM	> 100 µM	42.8 µM	> 100 µM	> 100 µM	> 100 µM	45.3 µM	88.7 µM	> 100 µM	> 100 µM	> 100 µM	34.3 µM	
CC1(C)O[C@@H]2[C@@H]3OC(=O)C[C@@H]3[C@@H](COCc3ccccc3)[C@@H]2O1	> 100 µM	> 100 µM	> 100 µM	> 100 µM	> 100 µM	> 100 µM	> 100 µM	> 100 µM	> 100 µM	> 100 µM	> 100 µM	> 100 µM	
CC(=O)OC1COC(Nn2c(=O)[nH]c3ccccc3c2=O)C(OC(C)=O)C1OC(C)=O (stereo unspecified)	> 100 µM	> 100 µM	> 100 µM	> 100 µM	> 100 µM	> 100 µM	> 100 µM	> 100 µM	> 100 µM	> 100 µM	> 100 µM	> 100 µM	
CCOC1SC(SC)=NN1C(=O)C(OC(C)=O)C(OC(C)=O)C(OC(C)=O)C(OC(C)=O)C(=O)N1N=C(SC)SC1OCC (stereo unspecified)	> 100 µM	> 100 µM	> 100 µM	> 100 µM	> 100 µM	> 100 µM	> 100 µM	> 100 µM	> 100 µM	> 100 µM	> 100 µM	> 100 µM	
c1ccc2c(c1)C(=Nc1ccc(N=C3c4ccccc4-c4ccccc43)cc1)c1ccccc1-2	> 100 µM	> 100 µM	> 100 µM	> 100 µM	> 100 µM	> 100 µM	> 100 µM	> 100 µM	> 100 µM	> 100 µM	> 100 µM		
O=C(O)c1cc(Sc2ccc([N+](=O)[O-])c(C(=O)O)c2)ccc1[N+](=O)[O-]	> 100 µM	> 100 µM	> 100 µM	> 100 µM	> 100 µM	> 100 µM	> 100 µM	> 100 µM	> 100 µM	> 100 µM	> 100 µM	> 100 µM	> 100 µM
[N-]=[N+]=NC1=C(c2ccccc2)C(=O)c2cccc3cccc1c23	74.6 µM	> 100 µM	> 100 µM		> 100 µM	95.2 µM	26.5 µM	82.1 µM	> 100 µM	8.29 µM	91.1 µM	91.1 µM	
